Results published in patent publication US12256737B2, “Preparation method and application of water-soluble chlorhexidine hyaluronate antibacterial agents” (Jiangnan University, priority 2022, dated 2025).
Values after ≈ are worked out from the molar mass of the structure shown.

Key:
[1] = Water solubility test; type: physicochemical; settings: deionized water, 25° C., 500 mg sample in 1 ml
Method: A method for testing the water solubility of the chlorhexidine antimicrobial disinfectant included the following steps: • 1 ml of deionized water was added to 500 mg of a sample to be tested and the sample was fully dissolved at 25° C. If an insoluble component existed, an insoluble portion suspended in the solution. After the solution was centrifuged in a centrifuge (rate of 5,000 r/min) for 5 min, the residual solid was washed 3 times in acetone and then dried in a vacuum oven for 24 h, and after the solid was completely dried, the solid was weighed and recorded as W1.
The solubility was calculated as follows: • solubility (mg/ml)=(500−W1)/1 • where W1 is the mass (mg) of the undissolved solid.

[2] = system: E. coli; experiment: In-vitro antimicrobial experiment (MIC, 96-well broth dilution); type: cell-based, Escherichia coli; settings: 37° C., 24 h; for MIC: LB liquid medium
Method: (§1) An in-vitro antimicrobial experiment of the chlorhexidine antimicrobial disinfectant was performed according to the following steps: • in a sterile super clean bench, the chlorhexidine antimicrobial disinfectants were separately prepared into 10 mg/ml solutions. A 96-well plate was taken and 100 μL of an LB liquid medium was injected into each well plate. Two rows in the same 96-well plate were respectively used as a sterile control and a drug-free control, 100 μL of the prepared chlorhexidine antimicrobial disinfectant solution was injected into the first column of the rest rows, two rows of each chlorhexidine antimicrobial disinfectant solution were injected as two groups of a parallel test, 100 μL of the uniformly mixed solution was injected into the right side well, the step was repeated until 12 columns of the wells were filled, and 100 μL of the solution was extracted from the last column and discarded. The previously cultured E. coli and S. aureus were diluted to a desired concentration of 1×10^6 CFU/mL using the LB liquid medium. 100 μL of the above-mentioned bacterial solution was injected into each well of the rows injected with the chlorhexidine antimicrobial disinfectant and the drug-free control row in the same plate. Then the plate was placed into a biochemical incubator to be cultured at 37° C. for 24 h. The plate was taken out and the change of the turbidity degree of each well was observed. […] It was observed by naked eyes that the lowest concentration of the antimicrobial agent in the clear wells where no bacteria grew was the minimum inhibitory concentration (MIC) of the tested bacteria.

[3] = system: S. aureus; experiment: as above; type: cell-based, Staphylococcus aureus; settings: 37° C., 24 h; for MIC: LB liquid medium
Method: as §1

[4] = Photostability test; type: physicochemical; settings: fluorescent lamp
Method: A photostability test of the hyaluronic acid chlorhexidine, for example the hyaluronic acid chlorhexidine (HA8-CHD) prepared in example 2, was performed according to the following steps: • a sample to be detected was exposed in an illumination box provided with a fluorescent lamp for 5 days and taken on 1st day, 3rd day and 5th day. Items (appearance, mass, 1H NMR spectrum detection, and antimicrobial performance) were mainly detected according to stability, especially the appearance change of the sample was particularly required to be noticed.

[5] = system: L-929 mouse fibroblasts; type: cell-based
Method: A cytotoxicity test of the hyaluronic acid chlorhexidine, for example the hyaluronic acid chlorhexidine (HAL-CHD) of example 4, specifically included the following steps: • L-929 mouse fibroblasts were digested and the cell suspension concentration was adjusted to 0.5-1 million/mL. 100 μL of the cell suspension was added into each well of a 96-well plate with […]. The wells at the edge of the 96-well plate were filled with a culture solution. The cells were cultured overnight in a 5% CO2 incubator at 37° C. Three samples of HAL-CHD-1 (1 MIC), HAL-CHD-3 (3 MIC) and HAL-CHD-5 (5 MIC) at the concentration gradients of 10 μL or less were respectively added, and 5 replicates were prepared for each concentration gradient. At the same time, a zero-setting well (containing a culture medium and CCK-8) was set. The 96-well plate was incubated in a 5% CO2 incubator at 37° C. After 24 h, 48 h and 72 h, 10 μL of a CCK-8 reagent was added. The reaction was performed in the incubator for 3 h and the absorbance was measured using a microplate reader at the wavelength of 450 nm.

CC(=O)O.CC(=O)O.NC(=N\CCCCCC/N=C(N)/N=C(\N)Nc1ccc(Cl)cc1)/N=C(\N)Nc1ccc(Cl)cc1 [AA-CHD, chlorhexidine acetate]
Water solubility [1]: 19.05 mg/mL

[H]/N=C(\N/C(=N/[H])NCCCCCCNC(=N)NC(=N)Nc1ccc(Cl)cc1)Nc1ccc(Cl)cc1 [CHD, 1,6-bis(p-chlorophenyldiguanido)hexane]
solubility ([1]; thermodynamic from solid): 0.85 mg/mL (≈ 1680 µM)

N=C(NCCCCCCNC(=N)NC(=N)Nc1ccc(Cl)cc1)NC(=N)Nc1ccc(Cl)cc1.O=C(O)[C@H](O)[C@@H](O)[C@H](O)[C@H](O)CO.O=C(O)[C@H](O)[C@@H](O)[C@H](O)[C@H](O)CO [GA-CHD, chlorhexidine gluconate, reference compound]
MIC [2]: 900 µM | MIC [3]: 700 µM | Water solubility [1]: ≥500 mg/mL

hyaluronic acid chlorhexidine [HA4-CHD]
MIC, corresponding mass concentration [2]: 1,667 μg/mL | MIC [2]: 1100 µM | MIC, corresponding mass concentration [3]: 1,250 μg/mL | MIC [3]: 800 µM

hyaluronic acid chlorhexidine [HA8-CHD]
antimicrobial performance after illumination ([4]; after illumination): not obviously reduced | appearance versus freshly prepared sample ([4]; within 5 days of illumination): no significant difference in appearance | mass versus freshly prepared sample ([4]; within 5 days of illumination): no significant change in the mass | structure characterization (1H NMR) versus freshly prepared sample ([4]; within 5 days of illumination): no significant difference in the structure characterization | Water solubility [1]: ≥500 mg/mL

hyaluronic acid chlorhexidine [HAL-CHD]
cell viability versus control group [5]: higher that of the control group
